# PubChem BioAssay (NCI)
# Several values for one entry are separate records, joined by “and”; a condition that tells them apart may be missing. Equal entries are not always repeated.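 96-well plates; 48 h exposure; 5 concentrations. Endpoints by linear interpolation between flanking doses. Not reached: highest tested concentration assigned. GI50 = concentration required for 50% inhibition of growth. At the TGI there is no net growth.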
# Tests used:
# Assay in all cases: NCI anticancer screen, dose series, 48 h
# DU-145 prostate = tested on: DU-145 prostate
# HL-60(TB) leukemia = tested on: HL-60(TB) leukemia
# KM12 colon = tested on: KM12 colon
# A498 renal = tested on: A498 renal
# ACHN renal = tested on: ACHN renal
# NCI-H522 lung = tested on: NCI-H522 lung
# EKVX NSCLC = tested on: EKVX NSCLC
# PC-3 prostate = tested on: PC-3 prostate
# MDA-N = tested on: MDA-N
# K-562 leukemia = tested on: K-562 leukemia
# HCT-15 colon = tested on: HCT-15 colon
# NCI/ADR-RES ovarian = tested on: NCI/ADR-RES ovarian
# UACC-257 melanoma = tested on: UACC-257 melanoma
# NCI-H460 lung = tested on: NCI-H460 lung
# U251 CNS = tested on: U251 CNS
# HS 578T breast = tested on: HS 578T breast
# HCT-116 colon = tested on: HCT-116 colon
# MDA-MB-435 = tested on: MDA-MB-435
# SF-268 CNS = tested on: SF-268 CNS
# SK-MEL-2 melanoma = tested on: SK-MEL-2 melanoma
# LOX IMVI melanoma = tested on: LOX IMVI melanoma
# OVCAR-8 ovarian = tested on: OVCAR-8 ovarian
# IGROV1 ovarian = tested on: IGROV1 ovarian
# SW-620 colon = tested on: SW-620 colon
# M14 melanoma = tested on: M14 melanoma
# HT29 colon = tested on: HT29 colon
# OVCAR-4 ovarian = tested on: OVCAR-4 ovarian
# HOP-62 NSCLC = tested on: HOP-62 NSCLC
# NCI-H23 lung = tested on: NCI-H23 lung
# RPMI-8226 leukemia = tested on: RPMI-8226 leukemia
# SF-295 CNS = tested on: SF-295 CNS
# BT-549 breast = tested on: BT-549 breast
# TK-10 renal = tested on: TK-10 renal
# SK-OV-3 ovarian = tested on: SK-OV-3 ovarian
# SK-MEL-5 melanoma = tested on: SK-MEL-5 melanoma
# SNB-19 CNS = tested on: SNB-19 CNS
# SNB-75 CNS = tested on: SNB-75 CNS
# A549 NSCLC = tested on: A549 NSCLC
# UO-31 renal = tested on: UO-31 renal
# HOP-92 NSCLC = tested on: HOP-92 NSCLC
# MOLT-4 leukemia = tested on: MOLT-4 leukemia
# SK-MEL-28 melanoma = tested on: SK-MEL-28 melanoma
# NCI-H226 lung = tested on: NCI-H226 lung
# MDA-MB-231 breast = tested on: MDA-MB-231 breast
# CAKI-1 renal = tested on: CAKI-1 renal
# OVCAR-3 ovarian = tested on: OVCAR-3 ovarian
# HCC-2998 colon = tested on: HCC-2998 colon
# MALME-3M melanoma = tested on: MALME-3M melanoma
# MCF7 breast = tested on: MCF7 breast
# RXF 393 renal = tested on: RXF 393 renal
# SF-539 CNS = tested on: SF-539 CNS
# T-47D breast = tested on: T-47D breast
# COLO 205 colon = tested on: COLO 205 colon
# SR leukemia = tested on: SR leukemia
# OVCAR-5 ovarian = tested on: OVCAR-5 ovarian
# CCRF-CEM leukemia = tested on: CCRF-CEM leukemia
# UACC-62 melanoma = tested on: UACC-62 melanoma
# SN12C renal = tested on: SN12C renal
# 786-0 renal = tested on: 786-0 renal
smiles,measurement,setting,value
C[C@@H]1CC[C@@]2(OC1)O[C@H]1C[C@H]3[C@@H]4CC[C@H]5C[C@@H](OC6OC(CO)C(OC7OC(CO)C(O)C(OC8OCC(O)C(O)C8O)C7OC7OC(CO)C(O)C(O)C7O)C(O)C6O)[C@H](O)C[C@]5(C)[C@H]4CC[C@]3(C)[C@H]1[C@@H]2C (stereo partly drawn),TGI,DU-145 prostate,13.9 µM
same,TGI,HL-60(TB) leukemia,9.54 µM
same,TGI,KM12 colon,23.6 µM
same,TGI,A498 renal,29.7 µM
same,TGI,ACHN renal,8.87 µM
same,TGI,NCI-H522 lung,2.05 µM
same,TGI,EKVX NSCLC,21 µM
same,TGI,PC-3 prostate,15.3 µM
same,TGI,MDA-N,28.3 µM
same,TGI,K-562 leukemia,> 100 µM
same,TGI,HCT-15 colon,> 33.9 µM
same,TGI,NCI/ADR-RES ovarian,12.6 µM
same,TGI,UACC-257 melanoma,39.9 µM
same,TGI,NCI-H460 lung,4.17 µM
same,TGI,U251 CNS,12.4 µM
same,TGI,HS 578T breast,15.9 µM
same,TGI,HCT-116 colon,17.8 µM
same,TGI,MDA-MB-435,31.8 µM
same,TGI,SF-268 CNS,23.7 µM
same,TGI,SK-MEL-2 melanoma,24.8 µM
same,TGI,LOX IMVI melanoma,7.89 µM
same,TGI,OVCAR-8 ovarian,9.64 µM
same,TGI,IGROV1 ovarian,8.31 µM
same,TGI,SW-620 colon,21 µM
same,TGI,M14 melanoma,32 µM
same,TGI,HT29 colon,13.3 µM
same,TGI,OVCAR-4 ovarian,4.62 µM
same,TGI,HOP-62 NSCLC,2.94 µM
same,TGI,NCI-H23 lung,7.39 µM
same,TGI,RPMI-8226 leukemia,30.1 µM
same,TGI,SF-295 CNS,13.4 µM
same,TGI,BT-549 breast,7.47 µM
same,TGI,TK-10 renal,> 100 µM
same,TGI,SK-OV-3 ovarian,29.8 µM
same,TGI,SK-MEL-5 melanoma,45.8 µM
same,TGI,SNB-19 CNS,27.1 µM
same,TGI,SNB-75 CNS,27.9 µM
same,TGI,A549 NSCLC,10.9 µM
same,TGI,UO-31 renal,17.8 µM
same,TGI,HOP-92 NSCLC,66.5 µM
same,TGI,MOLT-4 leukemia,31.1 µM
same,TGI,SK-MEL-28 melanoma,31 µM
same,TGI,NCI-H226 lung,23.9 µM
same,TGI,MDA-MB-231 breast,6.71 µM
same,TGI,CAKI-1 renal,12.5 µM
same,TGI,OVCAR-3 ovarian,9.56 µM
same,TGI,HCC-2998 colon,24.7 µM
same,TGI,MALME-3M melanoma,30.8 µM
same,TGI,MCF7 breast,1.68 µM
same,TGI,RXF 393 renal,27.1 µM
same,TGI,SF-539 CNS,12.8 µM
same,TGI,T-47D breast,28 µM
same,TGI,COLO 205 colon,22 µM
same,TGI,SR leukemia,> 33.8 µM
same,TGI,OVCAR-5 ovarian,18.9 µM
same,TGI,CCRF-CEM leukemia,1.53 µM
same,TGI,UACC-62 melanoma,47.3 µM
COc1cc2c(c(OC)c1OC)-c1ccc(SC)cc1C(O)CC2 (stereo not drawn),TGI,SN12C renal,23.6 µM
same,TGI,DU-145 prostate,> 100 µM
same,TGI,HL-60(TB) leukemia,< 0.01 µM
same,TGI,KM12 colon,< 0.01 µM
same,TGI,A498 renal,> 100 µM and 0.0742 µg/mL
same,TGI,ACHN renal,> 100 µM and 97.9 µg/mL
same,TGI,NCI-H522 lung,235 nM and 33.7 µg/mL
same,TGI,EKVX NSCLC,> 100 µM
same,TGI,PC-3 prostate,> 100 µM and 63.9 µg/mL
same,TGI,MDA-N,0.461 µM
same,TGI,K-562 leukemia,< 0.01 µM
same,TGI,UACC-257 melanoma,32.8 µg/mL
same,TGI,NCI-H460 lung,19.5 µM
same,TGI,HCT-116 colon,> 100 µM
same,TGI,MDA-MB-435,17 µg/mL
same,TGI,SF-268 CNS,11.6 µM
same,GI50,SK-MEL-2 melanoma,27.4 µg/mL
same,TGI,SK-MEL-2 melanoma,> 100 µM
same,TGI,LOX IMVI melanoma,74.1 µM
same,TGI,IGROV1 ovarian,> 100 µM
same,TGI,SW-620 colon,> 100 µM
same,TGI,M14 melanoma,> 100 µM and 34.9 µg/mL
same,TGI,OVCAR-4 ovarian,> 100 µM
same,TGI,786-0 renal,> 100 µM
same,TGI,NCI-H23 lung,> 100 µM
same,TGI,RPMI-8226 leukemia,> 100 µM and 45.9 µg/mL
same,TGI,SF-295 CNS,83.7 µM
same,TGI,BT-549 breast,41 µg/mL
same,GI50,TK-10 renal,14.2 µg/mL
same,TGI,TK-10 renal,> 100 µM
same,TGI,SK-MEL-5 melanoma,1.11 µM and 15.1 µg/mL
same,TGI,SNB-19 CNS,> 100 µM
same,GI50,SNB-75 CNS,43.5 µg/mL
same,TGI,SNB-75 CNS,34.7 µM
same,TGI,A549 NSCLC,34.6 µM
same,TGI,HOP-92 NSCLC,> 100 µM
same,TGI,SK-MEL-28 melanoma,> 100 µM
same,TGI,MDA-MB-231 breast,> 100 µM
same,TGI,CAKI-1 renal,15.7 µM
same,TGI,OVCAR-3 ovarian,> 100 µM
same,TGI,HCC-2998 colon,18.3 µM
same,TGI,MALME-3M melanoma,> 100 µM
same,TGI,MCF7 breast,> 100 µM and 36.1 µg/mL
same,GI50,RXF 393 renal,16.2 µg/mL
same,TGI,T-47D breast,> 100 µM
same,TGI,COLO 205 colon,0.179 µM
same,TGI,SR leukemia,34.7 µg/mL
same,GI50,OVCAR-5 ovarian,0.249 µg/mL
same,TGI,OVCAR-5 ovarian,> 100 µM
same,TGI,CCRF-CEM leukemia,> 100 µM
same,TGI,UACC-62 melanoma,20.4 µM
